Source: patent US9693997B2, “Antiviral compounds” (priority 2013, dated 2017)
Counter-ions that a name gives are not always drawn.

Columns and labels:
[1] = system: Pseudotyped HCV GT1b particles (HCVpp), entry into Huh7-high CD81 cells; assay: microbe, parasite or virus in culture; format: cell-based, HCV GT1b Con1 strain; details: Hepatitis C virus, GT1B, 72 h, read-out: HCVpp GT-1b (EC50, μM)
[2] = system: pseudotyped VSV G particles (VSVpp) in Huh7-high CD81 cells; assay: microbe, parasite or virus in culture; format: cell-based, vesicular stomatitis virus; details: Vesicular stomatitis virus, 72 h, read-out: VSVpp (EC50, μM)

Compound	EC50 [1]	EC50 [2]
CC(C)CS(=O)(=O)c1ccc(-c2c(Cl)cc(Nc3n[nH]c(N)n3)cc2C(F)(F)F)cc1 [Compound 65, N*3*-[6-Chloro-4′-(2-methyl-propane-1-sulfonyl)-2-trifluoromethyl-biphenyl-4-yl]-1H-[1,2,4]triazole-3,5-diamine]	0.026 µM	> 10 µM
CC1(O)CCN(S(=O)(=O)c2ccc(-c3c(Cl)cc(Nc4n[nH]c(N)n4)cc3C(F)(F)F)cc2)CC1 [Compound 66, 1-[4′-(5-Amino-1H-[1,2,4]triazol-3-ylamino)-6′-chloro-2′-trifluoromethyl-biphenyl-4-sulfonyl]-4-methyl-piperidin-4-ol]	0.101 µM	7.32 µM
Nc1nc(Nc2cc(Cl)c(-c3ccc(S(=O)(=O)C4CNC4)cc3)c(C(F)(F)F)c2)n[nH]1 [Compound 67, N*3*-[4′-(Azetidine-3-sulfonyl)-6-chloro-2-trifluoromethyl-biphenyl-4-yl]-1H-[1,2,4]triazole-3,5-diamine hydrochloride]	0.107 µM	> 10 µM
CC1(O)CCN(S(=O)(=O)c2ccc(-c3c(Cl)cc(Nc4n[nH]c(N)n4)cc3C(F)(F)F)cc2)C1 (stereo not drawn) [Compound 68, 1-[4′-(5-Amino-1H-[1,2,4]triazol-3-ylamino)-6′-chloro-2′-trifluoromethyl-biphenyl-4-sulfonyl]-3-methyl-pyrrolidin-3-ol]	0.05 µM	8.73 µM
Nc1nc(Nc2cc(Cl)c(-c3ccc(S(=O)(=O)N4CC5(COC5)C4)cc3)c(C(F)(F)F)c2)n[nH]1 [Compound 69, N*3*-[6-Chloro-4′-(2-oxa-6-aza-spiro[3.3]heptane-6-sulfonyl)-2-trifluoromethyl-biphenyl-4-yl]-1H-[1,2,4]triazole-3,5-diamine]	0.033 µM	> 10 µM
CS(=O)(=O)c1ccc(-c2c(F)cc(Nc3nc(N)n[nH]3)cc2C(F)(F)F)cc1 [Compound 70, N^5-(2-Fluoro-4′-(methylsulfonyl)-6-trifluoromethylbiphenyl-4-yl)-1H-[1,2,4]-triazole-3,5-diamine]	0.064 µM	5.15 µM
CC(C)S(=O)(=O)c1ccc(-c2c(F)cc(Nc3nc(N)n[nH]3)cc2C(F)(F)F)cc1 [Compound 71, N^5-[6-Fluoro-4′-(propane-2-sulfonyl)-2-trifluoromethyl-biphenyl-4-yl]-1H-[1,2,4]-triazole-3,5-diamine]	0.153 µM	> 10 µM
CNS(=O)(=O)c1ccc(-c2c(F)cc(Nc3nc(N)n[nH]3)cc2C(F)(F)F)cc1 [Compound 72, 4′-(5-Amino-2H-[1,2,4]-triazol-3-ylamino)-6′-fluoro-2′-trifluoromethyl-biphenyl-4-sulfonic acid methylamide]	0.154 µM	> 10 µM
COCC(=O)Nc1ccc(-c2c(Cl)cc(Nc3n[nH]c(N)n3)cc2Cl)cc1 [Compound 73, N-(4′-(5-amino-1H-[1,2,4]triazol-3-ylamino)-2′,6′-dichlorobiphenyl-4-yl)-2-methoxyacetamide]	0.113 µM	24.1 µM
CN(C)S(=O)(=O)c1ccc(-c2c(F)cc(Nc3nc(N)n[nH]3)cc2C(F)(F)F)cc1 [Compound 75, 4′-(5-Amino-2H-[1,2,4]-triazol-3-ylamino)-6′-fluoro-2′-trifluoromethyl-biphenyl-4-sulfonic acid dimethylamide]	0.164 µM	12.6 µM
CS(=O)(=O)c1ccc(-c2c(F)cc(Nc3nc(N)n[nH]3)cc2F)cc1 [Compound 76, N^5-(2,6-difluoro-4′-(methylsulfonyl)biphenyl-4-yl)-1H-[1,2,4]-triazole-3,5-diamine]	0.246 µM	> 10 µM
Nc1n[nH]c(Nc2cc(F)c(-c3ccc(S(=O)(=O)N4CCOCC4)cc3)c(F)c2)n1 [Compound 77, N^5-(2,6-difluoro-4′-(morpholine-4-sulfonyl)biphenyl-4-yl)-1H-[1,2,4]-triazole-3,5-diamine]	0.19 µM	24.7 µM
